Source: ChEMBL document CHEMBL1156443, “Guanidinylated neomycin delivers large, bioactive cargo into cells through a heparan sulfate-dependent pathway” (J Biol Chem, 2007)
Activity calls are given as the source filed them. The calls are words filed in the database; no cut-off is given here.

Tests used:
CHO [1] = experiment: Inhibition of arg9 binding to CHO pgsA745 mutant cells after 1 hr by flow cytometry; format: cell-based
CHO [2] = experiment: Inhibition of arg9 binding to CHO cells after 1 hr by flow cytometry; format: cell-based
[3] = biological target: Fibroblast growth factor 2 (Homo sapiens, UniProt P09038); experiment: Binding affinity to biotinylated FGF2 in CHO cells by flow cytometry; format: cell-based
Sequence of Fibroblast growth factor 2 (P09038 143-288 limits assumed): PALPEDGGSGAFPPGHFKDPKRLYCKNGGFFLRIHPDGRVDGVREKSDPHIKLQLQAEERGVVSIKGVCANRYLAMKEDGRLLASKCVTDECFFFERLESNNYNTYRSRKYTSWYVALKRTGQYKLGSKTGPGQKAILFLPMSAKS

CHO [4] = experiment: Cytotoxicity against CHO cells upto 100 nM after 4 days by Cell-Titer assay; format: cell-based, Cricetulus griseus; settings: chinese hamster, 96 h
CHO [5] = experiment: Cytotoxicity against CHO pgsA745 mutant cells upto 100 nM after 4 days by Cell-Titer assay; format: cell-based, Cricetulus griseus; settings: chinese hamster, 96 h

Compound | Activity (CHO [1]) | Activity (CHO [2]) | IC50 [3] | Activity (CHO [4]) | Activity (CHO [5])
N=C(N)NC[C@@H]1O[C@H](O[C@H]2[C@@H](O)[C@H](O[C@@H]3[C@@H](O)[C@H](NC(=N)N)C[C@H](NC(=N)N)[C@H]3O[C@H]3O[C@H](CNC(=N)N)[C@@H](O)[C@H](O)[C@H]3NC(=N)N)O[C@@H]2CO)[C@H](NC(=N)N)[C@@H](O)[C@@H]1O [GUANIDINONEOMYCIN] | inactive | Active | 20 µM | – | –
N=C(N)NC[C@@H]1O[C@H](O[C@H]2[C@@H](O)[C@H](O[C@@H]3[C@@H](O)[C@H](NC(=N)N)C[C@H](NC(=N)N)[C@H]3O[C@H]3O[C@H](CNC(=N)N)[C@@H](O)[C@H](O)[C@H]3NC(=N)N)O[C@@H]2CSCCNC(=O)CCCCCNC(=O)CCCC[C@@H]2SCC3NC(=O)NC32)[C@H](NC(=N)N)[C@@H](O)[C@@H]1O (stereo not given in full) | – | – | – | Non-toxic | Non-toxic
